In paper PMC10951066, “The self-reactive FVIII T cell repertoire in healthy individuals relies on a short set of epitopes and public clonotypes” (Frontiers in Immunology, 2024):

What was measured:
Assay in all cases: Peptide-MHCII competition binding assay
HLA-DRB1*0101 = HLA-DRB1*0101 (Homo sapiens, UniProt P01903+P01911, A100R/D57E/F55L/F60I/F76Y/I96L/L162R/M171V/P40L/Q125E/R42F/V115G/Y59C); conditions: competition ELISA, pH 5.9, peptide 90.000nM – 0.9nM, HLA-DRB1 30 nM, biotinylated peptide 15nM, duplicate wells; ratios below 10 = good binding; reference peptide […]
Procedure: (§1) Quantitative peptide-MHCII competition binding assays were carried out to determine binding avidities of the 18 20-mer FVIII peptides to 6 HLA-DRB1. Data are presented as ratio between reference peptide IC50/FVIII-peptide IC50 tested. Briefly, non-biotinylated FVIII peptides have been diluted at a concentration of 20 mM in DMSO. 10-µl aliquots of serially diluted (90.000nM – 0.9nM in n-Octyl b-D-Glucopyranoside, 2.5 mg/ml in 1x phosphate buffer, pH 5.9) of non-biotinylated FVIII peptides, were added to duplicate wells of 96-well polypropylene plates. Serially diluted non-FVIII reference peptides known to bind to the specific HLA-DRB1 were added to separate wells as positive controls. Next, the biotinylated peptide at a concentration of 2mM was use to prepare 1000-fold pre-dilution to reach a final concentration of 15nM. The HLA-DRB1 proteins were diluted to 30 nM in n-Octyl β-D-Glucopyranoside, 2.5 mg/ml in 1x phosphate buffer, pH 5.9. […] SA-HRP (diluted 5000x in 1xPBS 0.1% Tween20) was added to each well. The plates were covered and incubated at room temperature for 60 min […] and washed. TMB (100 μl/well) was then added, and the plates were incubated at room temperature for 15-30 min. ELISA stopping solution (0.5M H2SO4) was added and then read on a FLUOstar OPTIMA fluorometer. Sigmoidal binding curves were simulated and IC50 values calculated for the FVIII peptides, based on their competition with the reference peptides for each HLA-DRB1. Data were reported as the ratio between the values of the tested peptide and of the reference peptide. Ratios below 10 correspond to good biding affinity.

HLA-DRB1*0401 = HLA-DRB1*0401 (Homo sapiens, UniProt P01903+P01911, A100K/A169T/F76Y/I96L/K127E/L162R/M171V/N62H/P40V/Q125Y/R42H/S133A/S149N/S66Y/V115G/V209L/W38E); conditions: competition ELISA, pH 5.9, peptide 90.000nM – 0.9nM, HLA-DRB1 30 nM, biotinylated peptide 15nM, duplicate wells; ratios below 10 = good binding; reference peptide […]
Procedure: as §1

HLA-DRB1*1501 = HLA-DRB1*1501 (Homo sapiens, UniProt P01903+P01911); conditions: competition ELISA, pH 5.9, peptide 90.000nM – 0.9nM, HLA-DRB1 30 nM, biotinylated peptide 15nM, duplicate wells; ratios below 10 = good binding; reference peptide ENPVVHFFKNIVTPR
Procedure: as §1

HLA-DRB1*0701 = HLA-DRB1*0701 (Homo sapiens, UniProt P01903+P01911, A100R/A102G/A103Q/D57E/D86V/E43K/F76Y/K127E/L162R/M171V/P40G/Q125H/Q99D/R33Q/R42Y/R54Q/S133A/S66F/T210M/V115G/Y107V/Y59L/Y89S); conditions: competition ELISA, pH 5.9, peptide 90.000nM – 0.9nM, HLA-DRB1 30 nM, biotinylated peptide 15nM, duplicate wells; ratios below 10 = good binding; reference peptide PVDLHAFLSQAVFS
Procedure: as §1

HLA-DRB1*1101 = HLA-DRB1*1101 (Homo sapiens, UniProt P01903+P01911, A100R/A169T/A87E/I96F/K41T/L162R/M171V/P40S/Q125H/Q178H/Q39Y/Q99D/R42S/S66Y/T262R/V115G/W38E); conditions: competition ELISA, pH 5.9, peptide 90.000nM – 0.9nM, HLA-DRB1 30 nM, biotinylated peptide 15nM, duplicate wells; ratios below 10 = good binding; reference peptide […]
Procedure: as §1

| Sequence | Ratio IC50 DRB1*0101 (HLA-DRB1*0101) | Ratio IC50 DRB1*0401 (HLA-DRB1*0401) | Ratio IC50 DRB1*1501 (HLA-DRB1*1501) | Ratio IC50 DRB1*0701 (HLA-DRB1*0701) | Ratio IC50 DRB1*1101 (HLA-DRB1*1101) |
| --- | --- | --- | --- | --- | --- |
| YDTVVITLKNMASHPVSLHA [P100-119, 20-mer FVIII peptide, A1 domain] | 226 | 17 | 0.5 | 3 | 2 |
| KLARLHYSGSINAWSTKEPF [P2068-2087, 20-mer FVIII peptide, C1 domain] | 70.5 | 0.2 | 20 | 0.35 | 4.6 |
| LLTRYLRIHPQSWVHQIALR [P2320-2339, 20-mer FVIII peptide, C2 domain] | 1 | 76 | 0.0 | 0.05 | 1 |
| SLYISQFIIMYSLDGKKWQT [P2114-2133, 20-mer FVIII peptide, C1 domain] | 0.2 | 0.6 | 4 | 0.1 | 0.4 |
| HPQSWVHQIALRMEVLGCEA [P2328-2347, 20-mer FVIII peptide, C2 domain] | 1.6 | 1240 |  | 1 | 2 |
| KKEEYKMALYNLYPGVFETV [P1986-2005, 20-mer FVIII peptide, A3 domain] | 182 | 622.5 | 0.4 | 0.2 |  |
| PPIIARYIRLHPTHYSIRST [P2161-2180] | 1 | 5.6 | 0.05 | 0.05 | 0.4 |
| LGQFLLFCHISSHQHDGMEA [P322-341, 20-mer FVIII peptide, A1 domain] |  |  | 0.05 | 0.6 | 0.05 |
| KEPFSWIKVDLLAPMIIHGI [P2084-2103, 20-mer FVIII peptide, C1 domain] |  | 1.9 |  |  |  |
| RHYFIAAVERLWDYGMSSSP [P1715-1734, 20-mer FVIII peptide, A3 domain] | 20.4 | 138 | 77 | 1 |  |
| INGYIMDTLPGLVMAQDQRI [P1940-1959, 20-mer FVIII peptide, A3 domain] | 6 | 0.1 |  | 1.1 | 0.5 |
| DHLFNIAKPRPPWMGLLGPT [P75-94, 20-mer FVIII peptide, A1 domain] | 747 | 27 | 0.0 | 1 | 1.8 |
| ATRRYYLGAVELSWDYMQSD [P20-39, 20-mer FVIII peptide, A1 domain] |  | 1.7 |  | 0.5 | 0.8 |
| LSHVDLVKDLNSGLIGALLV [P178-197, 20-mer FVIII peptide, A1 domain] | 1.7 | 0.05 | 95 | 0.4 | 0.1 |
| VHSIFLEGHTFLVRNHRQAS [P285-304, 20-mer FVIII peptide, A1 domain] | 163 | 57.6 | 11 | 2 | 0.0 |
| KARLHLQGRSNAWRPQVNNP [P2226-2245, 20-mer FVIII peptide, C2 domain] | 0.2 | 3 | 0.6 | 0.05 | 1.9 |
